# Results published in PMC10004634 (PLOS ONE, 2023).
# Read-outs that look alike come from different tables or passages of the source.
# Key:
# PFCDPK1(P.falciparum) = molecular target: T1, PFCDPK1(P.falciparum) (Plasmodium falciparum, UniProt P62344); assay: biochemical
# T1 construct: gene CDPK1
# AAK1 = AAK1 (Homo sapiens, UniProt Q2M2I8); assay: biochemical; parameters: KINOMEscan scanMAX competition binding, DNA-tagged kinases, qPCR read-out, percent control at 300 nM
# EPHB6 = molecular target: T2, EPHB6 (Homo sapiens, UniProt O15197); assay: biochemical; parameters: KINOMEscan scanMAX competition binding, DNA-tagged kinases, qPCR read-out, percent control at 300 nM
# T2 sequence (O15197 1-1021): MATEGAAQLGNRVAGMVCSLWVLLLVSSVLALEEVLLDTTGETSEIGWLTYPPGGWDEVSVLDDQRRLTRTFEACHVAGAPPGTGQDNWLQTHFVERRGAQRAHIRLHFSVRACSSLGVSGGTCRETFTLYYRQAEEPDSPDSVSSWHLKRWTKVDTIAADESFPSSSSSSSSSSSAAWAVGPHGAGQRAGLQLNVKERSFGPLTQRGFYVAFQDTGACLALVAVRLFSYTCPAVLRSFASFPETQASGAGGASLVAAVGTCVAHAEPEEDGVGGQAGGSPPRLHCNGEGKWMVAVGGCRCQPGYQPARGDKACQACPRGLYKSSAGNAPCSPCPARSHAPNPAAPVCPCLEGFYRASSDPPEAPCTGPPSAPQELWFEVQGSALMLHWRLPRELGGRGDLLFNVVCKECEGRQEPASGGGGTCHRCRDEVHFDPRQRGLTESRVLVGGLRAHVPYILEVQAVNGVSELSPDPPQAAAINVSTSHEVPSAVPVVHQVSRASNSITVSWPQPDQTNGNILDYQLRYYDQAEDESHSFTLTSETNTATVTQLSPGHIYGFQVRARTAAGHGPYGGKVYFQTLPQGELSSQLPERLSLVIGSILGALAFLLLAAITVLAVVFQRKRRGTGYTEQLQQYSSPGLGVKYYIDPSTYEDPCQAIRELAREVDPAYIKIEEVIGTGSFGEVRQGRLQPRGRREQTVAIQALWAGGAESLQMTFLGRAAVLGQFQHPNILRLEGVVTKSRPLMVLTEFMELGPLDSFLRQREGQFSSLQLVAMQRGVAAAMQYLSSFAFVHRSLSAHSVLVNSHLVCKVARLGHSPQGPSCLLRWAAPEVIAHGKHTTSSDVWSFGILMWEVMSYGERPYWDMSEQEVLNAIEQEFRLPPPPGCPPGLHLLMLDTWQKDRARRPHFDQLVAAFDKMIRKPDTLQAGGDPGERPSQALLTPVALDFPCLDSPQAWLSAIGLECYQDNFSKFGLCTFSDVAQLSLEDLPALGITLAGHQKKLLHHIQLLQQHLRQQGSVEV
# [1] = molecular target: T3, JAK1(JH2domain-pseudokinase) (Homo sapiens, UniProt P23458); assay: biochemical; parameters: KINOMEscan scanMAX competition binding, DNA-tagged kinases, qPCR read-out, percent control at 300 nM
# T3 construct: JH2domain-pseudokinase
# [2] = molecular target: T4, JAK2(JH1domain-catalytic) (Homo sapiens, UniProt O60674); assay: biochemical; parameters: KINOMEscan scanMAX competition binding, DNA-tagged kinases, qPCR read-out, percent control at 300 nM
# T4 construct: JH1domain-catalytic
# T4 sequence (O60674 whole entry): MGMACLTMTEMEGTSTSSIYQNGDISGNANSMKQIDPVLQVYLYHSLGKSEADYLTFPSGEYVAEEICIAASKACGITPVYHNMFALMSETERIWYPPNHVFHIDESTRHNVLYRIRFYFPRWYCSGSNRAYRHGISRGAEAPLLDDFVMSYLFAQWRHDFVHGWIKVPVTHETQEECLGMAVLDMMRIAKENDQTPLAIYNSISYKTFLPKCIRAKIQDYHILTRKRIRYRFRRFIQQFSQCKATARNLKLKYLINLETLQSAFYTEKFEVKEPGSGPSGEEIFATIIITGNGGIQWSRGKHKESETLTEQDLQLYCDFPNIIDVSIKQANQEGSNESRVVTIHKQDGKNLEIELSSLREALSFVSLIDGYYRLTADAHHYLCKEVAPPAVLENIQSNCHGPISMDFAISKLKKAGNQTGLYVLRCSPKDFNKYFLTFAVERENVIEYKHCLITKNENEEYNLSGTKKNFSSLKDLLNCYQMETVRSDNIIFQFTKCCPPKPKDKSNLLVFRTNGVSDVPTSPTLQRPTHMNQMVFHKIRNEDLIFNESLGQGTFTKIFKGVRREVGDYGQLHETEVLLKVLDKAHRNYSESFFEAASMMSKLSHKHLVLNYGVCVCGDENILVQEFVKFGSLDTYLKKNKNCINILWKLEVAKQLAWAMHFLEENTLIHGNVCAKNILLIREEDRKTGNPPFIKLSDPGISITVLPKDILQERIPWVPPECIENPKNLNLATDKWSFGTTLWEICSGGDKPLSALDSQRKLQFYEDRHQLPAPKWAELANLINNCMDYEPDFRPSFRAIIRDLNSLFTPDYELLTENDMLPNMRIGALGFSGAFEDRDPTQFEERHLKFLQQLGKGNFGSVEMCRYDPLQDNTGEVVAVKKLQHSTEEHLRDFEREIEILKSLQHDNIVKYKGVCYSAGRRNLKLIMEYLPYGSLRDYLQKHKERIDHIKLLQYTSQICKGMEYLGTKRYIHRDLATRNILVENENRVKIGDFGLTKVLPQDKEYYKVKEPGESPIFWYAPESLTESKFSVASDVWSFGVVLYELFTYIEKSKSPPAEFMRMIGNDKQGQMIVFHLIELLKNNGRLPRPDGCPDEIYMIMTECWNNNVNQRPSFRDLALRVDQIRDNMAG
# NEK2 = molecular target: T5, NEK2 (Homo sapiens, UniProt P51955); assay: biochemical; parameters: KINOMEscan scanMAX competition binding, DNA-tagged kinases, qPCR read-out, percent control at 300 nM
# T5 sequence (P51955 1-445): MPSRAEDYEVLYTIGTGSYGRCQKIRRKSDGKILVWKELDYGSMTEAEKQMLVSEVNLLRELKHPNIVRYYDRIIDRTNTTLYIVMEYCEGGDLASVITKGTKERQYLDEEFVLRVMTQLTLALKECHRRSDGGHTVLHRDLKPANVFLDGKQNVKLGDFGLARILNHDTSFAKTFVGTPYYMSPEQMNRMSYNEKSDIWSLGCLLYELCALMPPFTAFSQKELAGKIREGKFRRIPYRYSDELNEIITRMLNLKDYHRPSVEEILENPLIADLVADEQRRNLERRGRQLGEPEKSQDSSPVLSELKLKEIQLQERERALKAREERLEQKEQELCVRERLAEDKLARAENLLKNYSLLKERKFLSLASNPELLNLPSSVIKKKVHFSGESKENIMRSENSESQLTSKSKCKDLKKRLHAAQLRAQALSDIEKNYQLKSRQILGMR
# [3] = molecular target: T6, RSK1(Kin.Dom.1-N-terminal) (Homo sapiens, UniProt Q15418); assay: biochemical; parameters: KINOMEscan scanMAX competition binding, DNA-tagged kinases, qPCR read-out, percent control at 300 nM
# T6 construct: gene RPS6KA1; Kin.Dom.1-N-terminal
# T6 sequence (Q15418 whole entry): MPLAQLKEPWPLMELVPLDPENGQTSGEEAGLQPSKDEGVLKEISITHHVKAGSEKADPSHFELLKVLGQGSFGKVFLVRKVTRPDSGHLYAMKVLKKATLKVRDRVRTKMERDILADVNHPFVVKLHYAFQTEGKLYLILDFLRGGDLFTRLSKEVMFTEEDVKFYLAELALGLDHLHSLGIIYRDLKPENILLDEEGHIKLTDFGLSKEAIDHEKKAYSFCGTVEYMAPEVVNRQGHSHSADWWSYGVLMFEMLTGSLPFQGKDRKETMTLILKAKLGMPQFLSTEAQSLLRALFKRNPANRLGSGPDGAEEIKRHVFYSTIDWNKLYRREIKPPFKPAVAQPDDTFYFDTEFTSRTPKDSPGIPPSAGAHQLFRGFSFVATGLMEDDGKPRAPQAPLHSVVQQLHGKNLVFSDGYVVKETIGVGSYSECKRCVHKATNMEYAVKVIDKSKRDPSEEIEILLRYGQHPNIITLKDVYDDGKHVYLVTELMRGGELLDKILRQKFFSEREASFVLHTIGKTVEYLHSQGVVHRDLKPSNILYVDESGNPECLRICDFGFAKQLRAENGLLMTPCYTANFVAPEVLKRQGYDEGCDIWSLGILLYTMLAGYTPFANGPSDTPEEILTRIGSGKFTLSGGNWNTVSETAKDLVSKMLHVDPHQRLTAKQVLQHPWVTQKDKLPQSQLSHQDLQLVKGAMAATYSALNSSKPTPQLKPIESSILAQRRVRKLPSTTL
# TXK = molecular target: T7, TXK (Homo sapiens, UniProt P42681); assay: Z'-Lyte kinase inhibition assay; format: biochemical; parameters: purchased Thermo Fisher Scientific (Invitrogen Z'-Lyte service); conditions: 60 min preincubation
# T7 sequence (P42681 1-527): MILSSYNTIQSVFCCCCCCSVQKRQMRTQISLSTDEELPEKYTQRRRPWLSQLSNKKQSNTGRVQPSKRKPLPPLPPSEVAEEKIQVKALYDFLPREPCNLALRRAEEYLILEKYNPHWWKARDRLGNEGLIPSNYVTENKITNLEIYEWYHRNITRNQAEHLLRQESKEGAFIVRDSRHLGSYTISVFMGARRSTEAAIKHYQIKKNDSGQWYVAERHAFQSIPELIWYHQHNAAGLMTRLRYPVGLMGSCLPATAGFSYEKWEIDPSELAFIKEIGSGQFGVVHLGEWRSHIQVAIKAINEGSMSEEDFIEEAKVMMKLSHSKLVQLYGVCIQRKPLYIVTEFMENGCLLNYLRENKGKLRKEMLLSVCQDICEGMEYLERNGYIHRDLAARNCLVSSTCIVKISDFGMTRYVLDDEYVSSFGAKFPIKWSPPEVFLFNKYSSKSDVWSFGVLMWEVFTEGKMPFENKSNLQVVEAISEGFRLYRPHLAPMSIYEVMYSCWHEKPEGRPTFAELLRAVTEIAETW
# Protocol: In all the assays, each test compound was preincubated with peptide/kinase mixture or kinase/antibody mixture for 60 min at room temperature before adding the ATP solution or AlexaFluor labeled Tracer to initiate the 60-min incubation of the reactants.
# PRP4 = molecular target: T8, PRP4 (Homo sapiens, UniProt Q13523); assay: biochemical; parameters: KINOMEscan scanMAX competition binding, DNA-tagged kinases, qPCR read-out, percent control at 300 nM
# T8 construct: gene PRPF4B
# T8 sequence (Q13523 whole entry): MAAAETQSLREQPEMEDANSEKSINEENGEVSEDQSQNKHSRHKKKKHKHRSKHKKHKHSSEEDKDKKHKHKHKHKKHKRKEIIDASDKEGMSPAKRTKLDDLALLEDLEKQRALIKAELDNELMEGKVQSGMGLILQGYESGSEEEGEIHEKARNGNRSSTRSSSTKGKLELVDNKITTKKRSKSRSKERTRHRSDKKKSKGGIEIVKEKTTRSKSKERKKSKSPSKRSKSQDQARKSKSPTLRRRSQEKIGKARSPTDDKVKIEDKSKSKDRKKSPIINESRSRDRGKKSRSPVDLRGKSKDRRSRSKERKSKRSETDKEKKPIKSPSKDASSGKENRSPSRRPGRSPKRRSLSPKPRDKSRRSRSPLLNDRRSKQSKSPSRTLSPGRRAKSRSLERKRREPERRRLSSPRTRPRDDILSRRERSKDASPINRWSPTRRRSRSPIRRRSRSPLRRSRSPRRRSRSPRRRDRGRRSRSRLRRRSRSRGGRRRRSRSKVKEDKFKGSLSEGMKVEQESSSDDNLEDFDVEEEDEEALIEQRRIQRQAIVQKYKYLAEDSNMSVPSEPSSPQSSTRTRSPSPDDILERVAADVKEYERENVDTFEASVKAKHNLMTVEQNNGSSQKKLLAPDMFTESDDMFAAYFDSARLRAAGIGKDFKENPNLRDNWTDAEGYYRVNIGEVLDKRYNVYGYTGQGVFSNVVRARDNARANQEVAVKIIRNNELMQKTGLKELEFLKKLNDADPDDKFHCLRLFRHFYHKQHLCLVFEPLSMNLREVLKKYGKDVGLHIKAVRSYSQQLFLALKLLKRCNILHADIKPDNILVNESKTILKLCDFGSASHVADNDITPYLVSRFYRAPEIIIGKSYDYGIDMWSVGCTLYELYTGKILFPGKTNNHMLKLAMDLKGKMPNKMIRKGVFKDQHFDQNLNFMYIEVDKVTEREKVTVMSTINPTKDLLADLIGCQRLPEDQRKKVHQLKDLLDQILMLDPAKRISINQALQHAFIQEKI
# [4] = read-out: Percent control / Acalabrutinib
# [5] = read-out: Percent control / Ibrutinib
# [6] = read-out: Percent control / Tirabrutinib
# [7] = read-out: Percent control / Zanubrutinib
# Chain of AAK1 (Q2M2I8 whole entry): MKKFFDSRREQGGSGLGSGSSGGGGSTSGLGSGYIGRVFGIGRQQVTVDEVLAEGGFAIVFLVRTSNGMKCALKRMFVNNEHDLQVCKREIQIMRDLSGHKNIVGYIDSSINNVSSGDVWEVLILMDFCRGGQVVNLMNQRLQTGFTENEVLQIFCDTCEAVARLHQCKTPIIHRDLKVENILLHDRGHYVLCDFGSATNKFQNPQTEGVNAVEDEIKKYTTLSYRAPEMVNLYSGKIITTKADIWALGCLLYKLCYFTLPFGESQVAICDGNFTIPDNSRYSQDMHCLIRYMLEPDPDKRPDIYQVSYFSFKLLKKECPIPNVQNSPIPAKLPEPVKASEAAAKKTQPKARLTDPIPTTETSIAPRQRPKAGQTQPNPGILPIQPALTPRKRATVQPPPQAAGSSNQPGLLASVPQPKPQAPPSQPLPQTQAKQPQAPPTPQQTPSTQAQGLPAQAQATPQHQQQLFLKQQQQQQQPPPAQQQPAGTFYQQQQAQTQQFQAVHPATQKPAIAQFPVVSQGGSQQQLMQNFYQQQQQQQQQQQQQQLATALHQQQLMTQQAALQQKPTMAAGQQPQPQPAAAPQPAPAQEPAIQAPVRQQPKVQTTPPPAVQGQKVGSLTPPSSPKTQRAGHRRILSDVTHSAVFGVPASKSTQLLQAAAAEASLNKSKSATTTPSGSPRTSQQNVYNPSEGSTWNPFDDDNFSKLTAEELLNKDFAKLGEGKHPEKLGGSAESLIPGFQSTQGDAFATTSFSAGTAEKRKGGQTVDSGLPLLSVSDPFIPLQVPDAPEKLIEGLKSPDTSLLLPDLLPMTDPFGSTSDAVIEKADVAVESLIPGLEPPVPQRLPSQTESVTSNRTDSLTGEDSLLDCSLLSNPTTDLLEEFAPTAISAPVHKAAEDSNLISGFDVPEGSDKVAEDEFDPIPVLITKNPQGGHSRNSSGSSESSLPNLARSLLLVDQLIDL
# T1 sequence (P62344 whole entry): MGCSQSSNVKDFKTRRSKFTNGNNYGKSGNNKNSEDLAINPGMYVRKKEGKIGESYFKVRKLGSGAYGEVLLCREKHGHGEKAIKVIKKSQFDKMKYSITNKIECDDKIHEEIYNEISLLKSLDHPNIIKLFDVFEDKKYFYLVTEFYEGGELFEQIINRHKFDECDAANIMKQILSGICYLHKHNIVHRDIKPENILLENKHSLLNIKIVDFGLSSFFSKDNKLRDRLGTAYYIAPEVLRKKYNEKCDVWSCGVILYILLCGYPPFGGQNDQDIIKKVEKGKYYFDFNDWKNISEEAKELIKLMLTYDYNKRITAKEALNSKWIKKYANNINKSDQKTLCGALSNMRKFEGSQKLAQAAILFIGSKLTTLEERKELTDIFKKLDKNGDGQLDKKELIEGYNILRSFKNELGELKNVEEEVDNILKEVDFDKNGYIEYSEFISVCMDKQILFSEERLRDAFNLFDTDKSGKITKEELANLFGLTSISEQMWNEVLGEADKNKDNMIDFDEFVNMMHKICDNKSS
smiles,measurement,setting,value
CC#CC(=O)N1CCC[C@H]1c1nc(-c2ccc(C(=O)Nc3ccccn3)cc2)c2c(N)nccn12 [Acalabrutinib],remaining activity at 0.3 µM,PFCDPK1(P.falciparum); [4],23%
same,remaining binding at 0.3 µM,AAK1; [4],94%
same,remaining binding at 0.3 µM,EPHB6; [4],85%
same,remaining binding at 0.3 µM,[1]; [4],99%
same,remaining binding at 0.3 µM,[2]; [4],85%
same,remaining binding at 0.3 µM,NEK2; [4],95%
same,remaining binding at 0.3 µM,[3]; [4],79%
same,IC50,TXK,273 nM
C=CC(=O)N1CCC[C@@H](n2nc(-c3ccc(Oc4ccccc4)cc3)c3c(N)ncnc32)C1 [Ibrutinib],remaining activity at 0.3 µM,PFCDPK1(P.falciparum); [5],0.9%
same,remaining binding at 0.3 µM,EPHB6; [5],46%
same,remaining binding at 0.3 µM,[1]; [5],80%
same,remaining binding at 0.3 µM,NEK2; [5],84%
same,remaining binding at 0.3 µM,PRP4; [5],96%
same,remaining binding at 0.3 µM,[3]; [5],98%
CC#CC(=O)N1CC[C@@H](n2c(=O)n(-c3ccc(Oc4ccccc4)cc3)c3c(N)ncnc32)C1 [Tirabrutinib],remaining binding at 0.3 µM,AAK1; [6],57%
same,remaining binding at 0.3 µM,EPHB6; [6],70%
same,remaining binding at 0.3 µM,[1]; [6],79%
same,remaining binding at 0.3 µM,[2]; [6],77%
same,remaining binding at 0.3 µM,NEK2; [6],93%
same,remaining binding at 0.3 µM,PRP4; [6],99%
same,IC50,TXK,54.5 nM
C=CC(=O)N1CCC([C@@H]2CCNc3c(C(N)=O)c(-c4ccc(Oc5ccccc5)cc4)nn32)CC1 [Zanubrutinib],remaining activity at 0.3 µM,PFCDPK1(P.falciparum); [7],7.4%
same,remaining binding at 0.3 µM,AAK1; [7],96%
same,remaining binding at 0.3 µM,EPHB6; [7],96%
same,remaining binding at 0.3 µM,[1]; [7],88%
same,remaining binding at 0.3 µM,[2]; [7],96%
same,remaining binding at 0.3 µM,NEK2; [7],90%
same,remaining binding at 0.3 µM,PRP4; [7],100%
same,remaining binding at 0.3 µM,[3]; [7],74%
same,IC50,TXK,4.59 nM
